Entries after “also recorded” stand apart in the source; their conditions may differ. Non-standard residues stand in square brackets, D forms with d. Residues, ends and D or L forms follow the SMILES beside them. dDip = N[C@@H](C(=O)O)C(c1ccccc1)c1ccccc1
Columns and labels:
[1] = SPR binding to 12(S)-HETE
Procedure: (§1) Binding experiments were done by surface plasmon resonance (SPR) on a BIAcore 3000 system (BiaCore AB, Piscataway, NJ). Peptide ligands and apoA-I were immobilized on a BIAcore CM5 sensor chip activated per the manufacturer's protocol with N-hydroxysuccinimide and 1-ethyl-3-(3-[…]) carbodiimide. After achieving adequate immobilization, the activated sensor surface was blocked with ethanolamine.
(§2) Lipid stock solutions were prepared in absolute ethanol and then diluted into a standard BIAcore buffer (HBS-EP), containing 10 mM HEPES, pH 7.4, 150 mM NaCl, 3 mM EDTA and 0.005% (v/v) surfactant P20. Lipid concentrations used in the binding studies were selected to give binding responses of 30-500 resonance units. Lipid stock solutions were prepared at 1 mg/ml in ethanol. […] Ethanol-free HBS-EP buffer was used during the dissociation phase. Lipid binding was measured by observing the change in the SPR angle as 150 µl of lipid analyte (various concentrations) in HBS-EP buffer flowed over the biosensor for 3 min at 50 µl/min. Biosensors were washed with 25 or 50% ethanol to regenerate them between binding studies. SPR data were corrected for background binding to the matrix of the chip (“blank” channel) and analyzed with BIAevaluation 4.1 software (Biacore, Piscataway, NJ).

[2] = SPR binding to 12(S)-HPETE
Procedure: as §1, §2

[3] = SPR binding to 5(S)-HPETE
Procedure: as §1, §2

SPR binding to PGPC = experiment: SPR binding to PGPC
Procedure: as §1, §2

[4] = SPR binding to 4β-hydroxycholesterol; conditions: peptide immobilized on CM5 chip, sterol in HBS-EP pH 7.4, mean ± SEM
Procedure: as §1, §2

[5] = SPR binding to 25-hydroxycholesterol; conditions: peptide immobilized on CM5 chip, sterol in HBS-EP pH 7.4, mean ± SEM
Procedure: as §1, §2

[6] = SPR binding to cholesterol; conditions: peptide immobilized on CM5 chip, sterol in HBS-EP pH 7.4, mean ± SEM
Procedure: as §1, §2

[7] = SPR binding to arachidonic acid
Procedure: as §1, §2

[8] = SPR binding to 15(S)-HETE
Procedure: as §1, §2

[9] = SPR binding to 20(S)-hydroxycholesterol
Procedure: as §1, §2

SPR binding to KOdiA-PC = experiment: SPR binding to KOdiA-PC
Procedure: as §1, §2

Bovine albumin = molecular target: T1, Bovine albumin (Bos taurus, UniProt P02769); experiment: SPR binding to bovine albumin (control); conditions: peptide immobilized on CM5 chip, analyte in HBS-EP pH 7.4, mean ± SEM
T1 construct: purchased Sigma-Aldrich
Procedure: as §1, §2

[10] = SPR binding to 24(S)-hydroxycholesterol
Procedure: as §1, §2

[11] = SPR binding to linoleic acid
Procedure: as §1, §2

[12] = SPR binding to 13(S)-HPODE
Procedure: as §1, §2

[13] = SPR binding to 15(S)-HPETE
Procedure: as §1, §2

SPR binding to 9(S)-HODE = experiment: SPR binding to 9(S)-HODE
Procedure: as §1, §2

[14] = SPR binding to 22(S)-hydroxycholesterol
Procedure: as §1, §2

[15] = SPR binding to 13(S)-HODE
Procedure: as §1, §2

SPR binding to PEIPC = experiment: SPR binding to PEIPC
Procedure: as §1, §2

apoE deficient mice = experiment: In vivo activity in apoE deficient mice: HDL inflammatory index; conditions: 1 mg/kg subcutaneously, fasting female apoE deficient mice, HDL isolated 6 h after dose, normalized to LDL; Figure 3
Procedure: As previously described, [64], HAEC cells were treated with native LDL (250 µg/ml) in the absence or presence of HDL or tested peptides for 8 h. After these cultures were washed, the medium was replaced by fresh Medium 199 and the cultures were incubated for an additional 8 h. This culture medium was collected and assayed for monocyte chemotactic activity using chambers purchased from Neuroprobe (Cabin John, MD). After monocytes were added to the upper compartment, the chamber was incubated for 60 min at 37°C and subsequently disassembled. The membrane was rinsed, air dried, fixed with 1% glutaraldehyde, stained with 0.1% crystal violet dye, and 12 standardized high power fields were examined microscopically. The number of migrated monocytes was expressed as the mean ±SD of monocytes counted. Values obtained in the absence of HDL were normalized to a value of 1.0. Normalized values >1.0 after HDL addition were considered to be pro-inflammatory, and values <1.0 as being anti-inflammatory.
ApoE null mice on a C57BL/6J background, originally from Jackson Laboratories (Bar Harbor, ME), were maintained in a breeding colony in the Department of Laboratory and Animal Medicine at the David Geffen School of Medicine at UCLA. The mice were maintained on a chow diet (Ralston Purina, St. Louis, MO).
Six hours later, and with continued fasting, blood was removed from the retro-orbital sinus under mild isoflurane anesthesia, and anticoagulated with heparin (2.5 U/ml). Plasma was obtained and fractionated by FPLC. HDL-containing fractions were tested in HAEC cultures for their ability to inhibit LDL-induced monocyte chemotactic activity. All procedures conformed to regulations of the UCLA Animal Research Committee. An HDL inflammatory index was determined using the standard monocyte chemotaxis assay. Indices >1 were interpreted as pro-inflammatory, and indices <1 as anti-inflammatory.

SPR binding to POVPC = experiment: SPR binding to POVPC
Procedure: as §1, §2

[16] = SPR binding to palmitic acid
Procedure: as §1, §2

[17] = KD(D-4F)/KD(OxP-11D), >1: OxP-11D binds with higher affinity
[18] = SPR, peptide immobilized on CM5 chip, lipid in HBS-EP pH 7.4, mean ± SEM
[19] = based on the KD ratios of Table 3
[20] = SPR, peptide immobilized on CM5 chip, sterol in HBS-EP pH 7.4, mean ± SEM

T1 sequence (P02769 25-607): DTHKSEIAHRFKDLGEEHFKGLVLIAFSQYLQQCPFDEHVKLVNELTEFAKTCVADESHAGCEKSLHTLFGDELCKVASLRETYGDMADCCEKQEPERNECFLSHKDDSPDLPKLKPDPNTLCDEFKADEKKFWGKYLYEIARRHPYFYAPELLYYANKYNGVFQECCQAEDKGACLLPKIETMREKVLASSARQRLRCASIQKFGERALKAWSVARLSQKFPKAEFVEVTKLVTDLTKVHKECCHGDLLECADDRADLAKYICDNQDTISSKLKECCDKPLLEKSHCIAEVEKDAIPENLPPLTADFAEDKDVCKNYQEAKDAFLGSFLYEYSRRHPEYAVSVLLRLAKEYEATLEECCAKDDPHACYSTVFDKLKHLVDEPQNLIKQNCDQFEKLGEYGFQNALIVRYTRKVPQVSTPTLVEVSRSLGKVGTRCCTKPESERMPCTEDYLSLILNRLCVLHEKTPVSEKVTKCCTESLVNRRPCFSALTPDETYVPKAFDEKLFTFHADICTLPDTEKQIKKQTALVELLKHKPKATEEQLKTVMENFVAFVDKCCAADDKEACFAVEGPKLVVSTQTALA

Q: With `CC(C)C[C@@H](NC(=O)CNC(=O)[C@H](NC(=O)[C@H](NC(=O)[C@@H](CCC(=O)O)NC(=O)[C@H](N)CCCNC(=N)N)C(c1ccccc1)c1ccccc1)[C@H](C)O)C(=O)N[C@H](C)C(=O)N[C@H](Cc1c[nH]c2ccccc12)C(=O)N[C@H](CCC(=O)O)C(=O)N[C@H](Cc1c[nH]c2ccccc12)C(=O)N[C@H](Cc1c[nH]c2ccccc12)C(=O)N[C@H](CCCNC(=N)N)C(=O)N[C@@H](C(=O)N[C@@H](C(N)=O)C(C)C)[C@H](C)O` [OxP-11D] (H-[dR][dE][dDip][dT]G[dL][dA][dW][dE][dW][dW][dR][dT][dV]-NH2; N-terminus assumed) as the compound, how does the “D-4F/OxP-11D KD Ratio, 12(S)-HETE” value [1, 17] read?
A: 0.375

Q: And the Kd [1, 18]?
A: 48 nM

Q: And the “D-4F/OxP-11D KD Ratio, 12(S)-HPETE” value [2, 17]?
A: 5.000

Q: And the Kd ([2]; SPR binding isotherm, Figure 5C, biosensor presented 4686 RU of OxP-11D)?
A: 34.4 ± 10.1 nM

Q: What about the “Affinity for 12(S)-HPETE relative to affinity for arachidonic acid” value [2, 19] of the same compound?
A: approximately 28.5 fold

Q: And the “D-4F/OxP-11D KD Ratio, 5(S)-HPETE” value [3, 17]?
A: 1.059

Q: And the Kd ([3]; SPR binding isotherm, Figure 5D, biosensor presented 4686 RU of OxP-11D)?
A: 16.9 ± 4.8 nM

Q: And the “Affinity for 5(S)-HPETE relative to affinity for arachidonic acid” value [3, 19]?
A: approximately 57 fold

Q: And the “D-4F/OxP-11D KD Ratio, PGPC” value (SPR binding to PGPC; [17])?
A: 0.002

Q: And the Kd (SPR binding to PGPC; [18])?
A: 3200 nM

Q: And the “KD ± SEM, 4β-hydroxycholesterol” value [4]?
A: BND

Q: And the “KD ± SEM, 25-hydroxycholesterol” value [5]?
A: BND

Q: And the Kd [6]?
A: 360 nM

Q: And the “D-4F/OxP-11D KD Ratio, arachidonic acid” value [7, 17]?
A: 0.012

Q: And the Kd [7, 18]?
A: 970 nM

Q: And the “D-4F/OxP-11D KD Ratio, 15(S)-HETE” value [8, 17]?
A: 0.236

Q: And the Kd [8, 18]?
A: 93 nM

Q: And the “D-4F/OxP-11D KD Ratio, 20(S)-hydroxycholesterol” value [9, 17]?
A: 7.647

Q: And the Kd [9, 20]?
A: 510 nM

Q: And the “D-4F/OxP-11D KD Ratio, KOdiA-PC” value (SPR binding to KOdiA-PC; [17])?
A: 0.003

Q: And the Kd (SPR binding to KOdiA-PC; [18])?
A: 190 nM

Q: What about the Kd (Bovine albumin) of the same compound?
A: 690 nM

Q: What about the “D-4F/OxP-11D KD Ratio, 24(S)-hydroxycholesterol” value [10, 17] of the same compound?
A: 17.917

Q: And the Kd [10, 20]?
A: 240 nM

Q: And the “D-4F/OxP-11D KD Ratio, linoleic acid” value [11, 17]?
A: 0.025

Q: What about the Kd [11, 18] of the same compound?
A: 600 nM

Q: And the “D-4F/OxP-11D KD Ratio, 13(S)-HPODE” value [12, 17]?
A: 0.677

Q: What about the Kd [12, 18] of the same compound?
A: 31 nM

Q: What about the “D-4F/OxP-11D KD Ratio, 15(S)-HPETE” value [13, 17] of the same compound?
A: 1.133

Q: What about the Kd [13, 18] of the same compound?
A: 45 nM

Q: What about the “D-4F/OxP-11D KD Ratio, 9(S)-HODE” value (SPR binding to 9(S)-HODE; [17]) of the same compound?
A: 0.714

Q: What about the Kd (SPR binding to 9(S)-HODE; [18]) of the same compound?
A: 21 nM

Q: And the “D-4F/OxP-11D KD Ratio, 22(S)-hydroxycholesterol” value [14, 17]?
A: 33.333

Q: What about the Kd [14, 20] of the same compound?
A: 450 nM

Q: What about the “D-4F/OxP-11D KD Ratio, 13(S)-HODE” value [15, 17] of the same compound?
A: 2.895

Q: What about the Kd [15, 18] of the same compound?
A: 3.8 nM

Q: And the “D-4F/OxP-11D KD Ratio, PEIPC” value (SPR binding to PEIPC; [17])?
A: 0.005

Q: What about the Kd (SPR binding to PEIPC; SPR binding isotherm, Figure 5B, biosensor presented 4686 RU of OxP-11D) of the same compound?
A: 12.4 ± 4.4 nM

Q: And the “HDL Inflammatory Index in vivo” value (apoE deficient mice)?
A: activity rivaled D-4F; also recorded: equally effective

Q: And the “D-4F/OxP-11D KD Ratio, POVPC” value (SPR binding to POVPC; [17])?
A: 0.008

Q: What about the Kd (SPR binding to POVPC; [18]) of the same compound?
A: 300 nM

Q: What about the “D-4F/OxP-11D KD Ratio, palmitic acid” value [16, 17] of the same compound?
A: 2.030

Q: And the Kd [16, 18]?
A: 330 nM
